Laboratory results as given in patent EP0110746A1, “Derivatives of 3-amino-1-phenoxy-2-propanol, their therapeutical use and process for their preparation” (LABORATOIRE L. LAFON Société anonyme dite:, priority 1982, dated 1984).

Tests used:
souris mâle [1] = assay: in vivo; conditions: mouse, ip
Procedure: (§1) On a résumé ci-après une partie des essais qui ont été entrepris avec le CRL 41 058 (produit de l'exemple 1). Dans ces essais et sauf indications contraires, le CRL 41 058, en suspension dans une solution aqueuse de gomme arabique pour des concentrations supérieures ou égales à 3 g/1, et en solution dans de l'eau distillée pour des concentrations inférieures à 3g/l, a été administré par voie intrapéritonéale sous un volume de 20 ml/kg chez la souris mâle et de 5 ml/kg chez le rat mâle.
(§2) Chez la souris màle par voie I.P., la DL-0 (dose maximale non mortelle) est supérieure à 64 mg/kg, et la DL-30 (dose à laquelle 30% des animaux meurent) est de l'ordre de 128 mg/kg. Le CRL 41 058 est moins toxique que le chlorhydrate de 1-(3,5-diméthoxy- phénoxy)-3-tertiobutylamino-2-propanol qui a une DL-50 par voie I.P. chez la souris mâle de l'ordre de 73 mg/kg.

[2] = tested on: tachycardie induite par isoprénaline; assay: Anaesthetised rat: determination of the effective β-blocking dose; format: in vivo; conditions: iv, I.V., 0,03 à 0,3 µg/kg I.V. isoprénaline, read-out: dose qui bloque la tachycardie induite par isoprénaline
Procedure: Des rats normotendus sont anesthésiés au pentobarbital (75 mg/kg I.P.) et atropinés (1 mg/kg I.P.) On mesure leur pression artérielle carotidienne, leur fréquence cardiaque par intégration de la pression artérielle. Une veine jugulaire […] pour les injections. Si besoin est, l'anesthésie est entretenue par injection sous-cutanée de pentobarbital. 3 rats reçoivent le CRL 41 058 par voie intraveineuse, aux doses successives de 0,3 mg/kg, 1 mg/kg,3 mg/kg, 10 mg/kg et, éventuellement, 30 mg/kg. On détermine la dose qui bloque […] induite par 0,03 à 0,3μg/kg […] (dose nécessaire pour obtenir une augmentation de fréquence cardiaque de 30 à 50 bat/min). On trouve que la dose en question est de 1 mg/kg I.V.

[3] = tested on: oreillettes droites isolées de cobaye; assay: Isolated guinea pig right atria: pA2 against chronotropic effect of isoprenaline, own inotropic and chronotropic action
Excerpt: Sur ces oreillettes, on évalue aussi l'action inotrope et chronotrope propre du CRL 41 058; aucune moyenne n'a pu être faite, les concentrations et l'ordre d'administration des concentrations étant variables. […] Par contre, si,par exemple, la concentration de 10^-6 M est administrée après des concentrations inférieures qui ont été stimulantes, cette concentration de 10^-6 M est ino et chrono (ce phénomène pourrait laisser supposer une libération de catécholamines).

[4] = tested on: chiens anesthésiés au nembutal; assay: Cardiovascular properties, anaesthetised dog, intraduodenal route; format: in vivo, chien
Procedure: Trois chiens (poids moyen : 13,6 kg) anesthésiés au nembutal reçoivent le CRL 41 058 par voie intraduodénale aux doses successives de 0,5 mg/kg, 1 mg/kg, 2,5 mg/kg, 5 mg/kg et 10 mg/kg. On mesure la pression artérielle (il est rappelé que 1 mm Hg correspond à environ 1,333 x 102 Pa), la fréquence cardiaque, le débit artériel fémoral, le débit artériel vertébral, la température rectale, et on note la coloration de la peau et la coloration de la bile recueillie par cathétérisation du cholédoque après ligature du cystique.

homme = assay: Clinical trials in man; format: in vivo; conditions: daily dose 40 à 50 mg in 2 à 3 intakes, 2 à 6 semaines
rat mâle = assay: Global behaviour and reactivities, rat; format: in vivo
Procedure: as §1

[5] = tested on: rats normotendus anesthésiés au pentobarbital; assay: Anaesthetised rat: duration of the β-blocking action; format: in vivo
Procedure: Des rats normotendus sont anesthésiés au pentobarbital (75 mg/kg I.P.) et atropinés (1 mg/kg I.P.) On mesure leur pression artérielle carotidienne, leur fréquence cardiaque par intégration de la pression artérielle. Une veine jugulaire est cathétérisée pour les injections. Si besoin est, l'anesthésie est entretenue par injection sous-cutanée de pentobarbital.
5 rats reçoivent 1 mg/kg de CRL 41 058 par voie I.V. 0n observe que : • - la pression artérielle, diastolique n'est pas modifiée, elle reste voisine de 91 mm Hg; et • - la fréquence cardiaque passe, en 5 min, de 345 à 290 bat/min (soit -16%), la bradycardie maximale est obtenue au temps 20 min : 280 bat/min (soit -19%). Après 90 min, la fréquence cardiaque est à 307 bat/min (soit -11%).

souris mâle [6] = assay: Global behaviour and reactivities, mouse; format: in vivo
Procedure: as §1

Solubility in water = format: physicochemical; conditions: read-out: soluble dans l'eau
Procedure: La base libre ainsi obtenue est traitée au reflux dans de l'éthanol anhydre par de l'éthanol chlorhydrique. Il se forme un précipité que l'on isole pour recueillir 36,3 g (rendement = 69,75%) de CRL 41 058 qui se présente sous la forme d'une poudre légèrement beige soluble à 12,5 g/1 dans l'eau. Finst (Köfler) ^= 216°C.

[7] = tested on: rats génétiquement hypertendus; assay: Awake genetically hypertensive rat: arterial pressure and heart rate; format: in vivo; conditions: 20 mg/kg V.B.
Procedure: 6 rats génétiquement hypertendus, à cathéter artériel fémoral implanté, reçoivent le CRL 41 058 à la dose de 20 mg/kg V.B.

in vivo = assay: in vivo; set-up: species or system souris; conditions: mouse, ip
Procedure: as §1, §2

COc1cc(OC)c(Cl)c(OCC(O)CNC(C)(C)C)c1 (stereo not shown) [CRL 41 058, chlorhydratede 1-(2-chloro-3,5-diméthoxyphénoxy)-3-tertiobutylamino-2-propanol]
DL-0 (dose maximale non mortelle) (souris mâle [1]): > 64 mg/kg
DL-30 (dose à laquelle 30% des animaux meurent) (souris mâle [1]): ~128 mg/kg
minimal effective dose [2]: 1 mg/kg
Kb ([3]; Cavia porcellus, 0.25 h, 15 min de contact, mean of 5 atria, read-out: pA2 vis-à-vis de l'effet chronotrope de l'isoprénaline (converted)): 6.17 nM
action inotrope et chronotrope propre ([3]; maximum at first concentration used, 3 x 10^-8 à 10^-6 M): effet ino + et chrono+
effet tachycardisant de l'isoprénaline ([4]; 100 µg/kg isoprénaline, two dogs, after cumulative dose 19 mg/kg): inférieur à l'effet tachycardisant de 0,3µg/kg d'isoprénaline témoin
minimal effective dose ([4]; Canis lupus familiaris, intraduodenal, voie intraduodénale, successive doses 0,5 to 10 mg/kg, read-out: dose bradycardisante): ≥ 0.5 mg/kg
pression artérielle systolique ([4]; after 1 µg/kg noradrénaline, control 280 mm Hg): 221 mm Hg
pression artérielle diastolique ([4]; after 3 µg/kg isoprénaline, cumulative dose 19 mg/kg, control 48 mm Hg): 119 mm Hg
fréquence cardiaque ([4]; after 3 µg/kg isoprénaline, cumulative dose 19 mg/kg, control 245 bat/min): 110 bat/min
coloration de la peau et celle de la bile ([4]; voie intraduodénale): ne sont pas modifiées
débit artériel vertébral ([4]; voie intraduodénale): n'est pas vasodilatateur vertébral
températures rectale et cutanée ([4]; voie intraduodénale): varient peu
action sur la pression artérielle ([4]; voie intraduodénale, from 0,5 mg/kg): sans aucune action nette
augmentation du débit fémoral ([4]; voie intraduodénale, flow decreases in the two other dogs): présente seulement chez un chien sur trois
action β-bloquante chez l'homme (homme): confirmé chez l'homme l'intérêt de l'action β-bloquante
symptômes (rat mâle; I.P., 0,25 mg/kg, 1 mg/kg et 4 mg/kg): ne provoquent pas de symptômes nets
symptômes (rat mâle; I.P., 16 mg/kg): sédation fugace (30 min) et déprime la respiration (chez 2 animaux sur 3) pendant 30 min
tachycardie à l'isoprénaline ([5]; 0,03 µg/kg I.V. isoprénaline after 1 mg/kg I.V., 5 min): totalement inhibée
tachycardie à l'isoprénaline, part de sa valeur reprise ([5]; 0,03 µg/kg I.V. isoprénaline after 1 mg/kg I.V., 20 min): 50%
tachycardie à l'isoprénaline, part de sa valeur restaurée ([5]; 0,03 µg/kg I.V. isoprénaline after 1 mg/kg I.V., 60 min): 92%
variation de pression artérielle à l'isoprénaline par rapport à la variation témoin ([5]; 0,03 µg/kg I.V. isoprénaline after 1 mg/kg I.V., at 5 min and during 2 h): -69%
variation de pression artérielle à l'isoprénaline ([5]; 0,03 µg/kg I.V. isoprénaline after 1 mg/kg I.V., at 5 min and during 2 h, control -26 mm Hg): +8 mm Hg
fréquence cardiaque, variation ([5]; 1 mg/kg I.V., 5 min): -16%
fréquence cardiaque ([5]; 1 mg/kg I.V., 5 min, baseline 345): 290 bat/min
fréquence cardiaque (bradycardie maximale) ([5]; 1 mg/kg I.V., 20 min): 280 bat/min
fréquence cardiaque, variation (bradycardie maximale) ([5]; 1 mg/kg I.V., 20 min): -19%
fréquence cardiaque ([5]; 1 mg/kg I.V., 90 min): 307 bat/min
fréquence cardiaque, variation ([5]; 1 mg/kg I.V., 90 min): -11%
pression artérielle diastolique ([5]; 1 mg/kg I.V., not modified): ~91 mm Hg
symptômes (souris mâle [6]; I.P., 0,5 mg/kg, 2 mg/kg et 8 mg/kg): ne provoquent pas de symptômes nets
symptômes (souris mâle [6]; I.P., 32 mg/kg): sédation inconstante (chez 2 animaux sur 3) et fugace (30 min), une dyspnée (chez 2 animaux sur 3) pendant 15 à 30 min
solubility (Solubility in water): 12.5 mg/mL
fréquence cardiaque ([7]; 5 min, baseline 382): 322 bat/min
fréquence cardiaque (bradycardie maximale) ([7]; 2 h): 305 bat/min
pression artérielle ([7]; 6 h, baseline 191): 167 mm Hg
fréquence cardiaque ([7]; 7 h): 322 bat/min
fréquence cardiaque ([7]; 24 h): 330 bat/min
pression artérielle ([7]; 24 h): a repris sa valeur témoin

COc1cc(OC)cc(OCC(O)CNC(C)(C)C)c1 (stereo not shown) [chlorhydratede 1-(3,5-diméthoxy-phénoxy)-3-tertiobutylamino-2-propanol, reference compound]
LD50 (in vivo): ~73 mg/kg
